Consider one molecule from patent US20140234365A1, “2-HYDROXYHIPPURIC ACID ANALOGS, AND METHODS FOR THEIR SYNTHESIS AND USE” (ALERE SAN DIEGO, INC., priority 2011, published 2014).

The test concerns anti-2-Hydroxyhippuric acid antibody. The test can be described thus: Competitive immunoassay for detecting 2-hydroxyhippuric acid (microfluidic device, fluorescent latex particle conjugate). The conditions noted are these: analyte diluted into pools of human plasma, fluorescence read in TRIAGE meter after >15 minutes. It is filed as binding. From the text: A competitive assay for detecting 2-hydroxyhippuric acid in […] was developed using microfluidic devices manufactured at Alere San Diego, Inc. essentially as described in WO98/43739, WO98/08606, WO98/21563, and WO93/24231. An anti-2-Hydroxyhippuric acid antibody was developed by phage display using a hapten-KLH conjugate as immunogen. This antibody was conjugated to a 0.13 μm maleimide-functionalized latex particle via a free cysteine residue on the antibody. The detection reagent consisted of a 0.50 μm fluorescence energy transfer latex particle (essentially as described in U.S. Pat. Nos. 5,763,189, 6,238,931, and 6,251,687; and International Publication WO95/08772) made according to Example 6. […] (comprising 0.22% solids) of the antibody-particle conjugate was spotted onto the diagnostic lane of the microfluidic device, and 170 nL (comprising 0.4% solids) of the 2-Hydroxyhippuric acid-particle conjugate was applied to the device reaction chamber. Analytes were dissolved in deionized water, then diluted into pools of human plasma to achieve the desired final concentration. 210 μL of sample was applied to the device sample addition zone and allowed to run >15 minutes prior to reading the fluorescence in the TRIAGE (Biosite Incorporated) meter. A fluorescent signal was obtained by integrating the fluorescence as a function of distance from the device origin.

Regarding `O=C(O)CNC(=O)c1ccccc1O` [2-Hydroxyhippuric acid, 2-hydroxyhippuric acid], the “concentration at which the assay detected the analyte” value amounted to 10 µg/mL.
